Experimental data as given in US20080306038A1, “Compositions and Methods for Modulating Inflammation Using Fluoroquinolones” (priority 2007, published 2008).

Key:
Type in all cases: cell-based, human
IP-10 = experiment: LPS-stimulated IP-10 production in THP-1 monocytes (multiplex Luminex); design: key to Inhibition of LPS-stimulated IP-10 production: “X” signifies significant inhibition at a particular concentration
Description: (§1) Human THP-1 monocytes (ATCC TIB 202) were purchased from American Type Culture Collection (Manassas, Va.) and maintained in RPMI 1640 medium (Invitrogen, Carlsbad, Calif.) supplemented with 10% fetal bovine serum (“FBS”, Invitrogen, Carlsbad, Calif.), 100 U/mL of penicillin (Invitrogen, Carlsbad, Calif.), and 100 μg/mL of streptomycin (Invitrogen, Carlsbad, Calif.) at 37° C. in a humidified incubator with 5% CO2. THP-1 cells were pre-cultured in RPMI 1640 medium containing 10% dialyzed serum for 24 h. […] Each treatment was performed in triplicate.
(§2) Samples were analyzed using multiplex bead technology, which utilizes microspheres as the solid support for immunoassays and allows the analysis of all cytokines from each sample (D. A. Vignali, J. Immunol. Methods, Vol. 243, 243-255 (2000)). Sixteen cytokines were measured according to the manufacturer's instructions. Briefly, 50 μL of medium samples were incubated with antibody-coated capture beads overnight at 4° C. Washed beads were further incubated with biotin-labelled anti-human cytokine antibodies for 2 h at room temperature followed by incubation with streptavidin-phycoerythrin for 30 min. Samples were analyzed using Luminex 200™ (Luminex, Austin, Tex.) and Beadview software v1.0 (Upstate Cell Signaling Solutions, Temecula, Calif.). Standard curves of known concentrations of recombinant human cytokines were used to convert fluorescence units (median fluorescence intensity) to cytokine concentration in pg/mL. Only the linear portions of the standard curves were used to quantify cytokine concentrations, and in instances where the fluorescence reading exceeded the linear range of the standard curve, an appropriate dilution was performed to ensure that the concentration was in the linear portion of the curve.
(§3) All cytokine concentrations (pg/mL) were expressed as mean ±standard deviation. Statistical analysis comparing effects of treatment across groups was performed using a one-way ANOVA with a Dunnett's post-hoc comparison test using either vehicle control or LPS treatment as references. For all assays, p≦0.05 was predetermined as the criterion of statistical significance.

VEGF = experiment: LPS-stimulated VEGF production in THP-1 monocytes (multiplex Luminex); design: key to Inhibition of LPS-stimulated VEGF production: “X” signifies significant inhibition at a particular concentration; conditions: for Inhibition of LPS-stimulated VEGF production: 18 hours, THP-1 monocytes
Description: as §1, §2, §3

MCP-1 = experiment: LPS-stimulated MCP-1 production in THP-1 monocytes (multiplex Luminex); design: key to Inhibition of LPS-stimulated MCP-1 production: “X” signifies significant inhibition at a particular concentration
Description: as §1, §2
(§4) All cytokine concentrations (pg/mL) were expressed as mean ±standard deviation. Statistical analysis comparing effects of treatment across groups was performed using a one-way ANOVA with a Dunnett's post-hoc comparison test using either vehicle control or LPS treatment as references. […]

IL-6 = experiment: LPS-stimulated IL-6 production in THP-1 monocytes (multiplex Luminex); design: key to Inhibition of LPS-stimulated IL-6 production: “X” signifies significant inhibition at a particular concentration
Description: as §1, §2, §3

IL-12p40 = experiment: LPS-stimulated IL-12p40 production in THP-1 monocytes (multiplex Luminex); design: key to Inhibition of LPS-stimulated IL-12p40 production: “X” signifies significant inhibition at a particular concentration; conditions: 18 hours
Description: as §1, §2, §3

IL-8 = experiment: LPS-stimulated IL-8 production in THP-1 monocytes (multiplex Luminex); design: key to Inhibition of LPS-stimulated IL-8 production: “X” signifies significant inhibition at a particular concentration
Description: as §1, §2, §3

MIP-1α = experiment: LPS-stimulated MIP-1α production in THP-1 monocytes (multiplex Luminex); design: key to Inhibition of LPS-stimulated MIP-1α production: “X” signifies significant inhibition at a particular concentration
Description: as §1, §2, §3

IL-1ra = experiment: LPS-stimulated IL-1ra production in THP-1 monocytes (multiplex Luminex); design: key to Inhibition of LPS-stimulated IL-1ra production: “X” signifies significant inhibition at a particular concentration; conditions: for Inhibition of LPS-stimulated IL-1ra production: 18 hours
Description: as §1, §2, §3

IL-1β = experiment: LPS-stimulated IL-1β production in THP-1 monocytes (multiplex Luminex); design: key to Inhibition of LPS-stimulated IL-1β production: “X” signifies significant inhibition at a particular concentration
Description: as §1, §2, §3

IL-1α = experiment: LPS-stimulated IL-1α production in THP-1 monocytes (multiplex Luminex); design: key to Inhibition of LPS-stimulated IL-1α production: “X” signifies significant inhibition at a particular concentration
Description: as §1, §2, §3

GM-CSF = experiment: LPS-stimulated GM-CSF production in THP-1 monocytes (multiplex Luminex); design: key to Inhibition of LPS-stimulated GM-CSF production: “X” signifies significant inhibition at a particular concentration
Description: as §1, §2, §4

RANTES = experiment: LPS-stimulated RANTES production in THP-1 monocytes (multiplex Luminex); conditions: 0.1-30 μg/mL, 18 hours
Description: as §1
(§5) Samples were analyzed using multiplex bead technology, which utilizes microspheres as the solid support for immunoassays and allows the analysis of all cytokines from each sample (D. A. Vignali, J. Immunol. Methods, Vol. 243, 243-255 (2000)). Sixteen cytokines were measured according to the manufacturer's instructions. Briefly, 50 μL of medium samples were incubated with antibody-coated capture beads overnight at 4° C. […] Samples were analyzed using Luminex 200™ (Luminex, Austin, Tex.) and Beadview software v1.0 (Upstate Cell Signaling Solutions, Temecula, Calif.). Standard curves of known concentrations of recombinant human cytokines were used to convert fluorescence units (median fluorescence intensity) to cytokine concentration in pg/mL. […]
(§6) All cytokine concentrations (pg/mL) were expressed as mean ±standard deviation. […]

G-CSF = experiment: LPS-stimulated G-CSF production in THP-1 monocytes (multiplex Luminex); design: key to Inhibition of LPS-stimulated G-CSF production: “X” signifies significant inhibition at a particular concentration
Description: as §1, §2, §3

Fractalkine = experiment: LPS-stimulated fractalkine production in THP-1 monocytes (multiplex Luminex); conditions: 0.1-30 μg/mL, 18 hours
Description: as §1, §5, §6

[1] = 30 μg/mL compound + 10 μg/mL LPS, 18 hours, THP-1 monocytes
[2] = LPS-induced, THP-1 monocytes, 18 hours
[3] = 30 μg/mL compound + 10 μg/mL LPS
[4] = FIG. 2, LPS-stimulated THP-1 monocytes
[5] = 1 μg/mL compound + 10 μg/mL LPS, 18 hours, THP-1 monocytes
[6] = 10 μg/mL compound + 10 μg/mL LPS, 18 hours, THP-1 monocytes

## N[C@@H]1CCCCN(c2c(F)cc3c(=O)c(C(=O)O)cn(C4CC4)c3c2Cl)C1 [Compound Having Formula IV]
IP-10; [1]
  Inhibition of LPS-stimulated IP-10 production: X
IP-10; FIG. 1, THP-1 monocytes
  Comparison of moxifloxacin and compound having Formula IV, effect on IP-10 after LPS stimulation: comparable effects
IP-10; [2]
  Concentration at which a significant inhibitory effect was observed for IP-10: 30 µg/mL
VEGF; 10 μg/mL compound + 10 μg/mL LPS
  Inhibition of LPS-stimulated VEGF production: X
VEGF; [3]
  Inhibition of LPS-stimulated VEGF production: X
VEGF; [4]
  Relative potency of compound having Formula IV and moxifloxacin on VEGF: better potency than moxifloxacin
MCP-1; [1]
  Inhibition of LPS-stimulated MCP-1 production: X
MCP-1; FIG. 1, THP-1 monocytes
  Comparison of moxifloxacin and compound having Formula IV, effect on MCP-1 after LPS stimulation: comparable effects
MCP-1; [2]
  Concentration at which a significant inhibitory effect was observed for MCP-1: 30 µg/mL
IL-6; [5]
  Inhibition of LPS-stimulated IL-6 production: X
IL-6; [6]
  Inhibition of LPS-stimulated IL-6 production: X
IL-6; [1]
  Inhibition of LPS-stimulated IL-6 production: X
IL-6; [4]
  Relative potency of compound having Formula IV and moxifloxacin on IL-6: better potency than moxifloxacin
IL-6; LPS-induced, THP-1 monocytes
  Concentration with significant inhibitory effect on IL-6: 1000 ng/mL
IL-6; [2]
  Concentration at which a significant inhibitory effect was observed for IL-6: 1 µg/mL
IL-12p40; [3]
  Inhibition of LPS-stimulated IL-12p40 production: X
IL-12p40; LPS-induced
  Concentration at which a significant inhibitory effect was observed for IL-12p40: 30 µg/mL
IL-8; [1]
  Inhibition of LPS-stimulated IL-8 production: X
IL-8; FIG. 1, THP-1 monocytes
  Comparison of moxifloxacin and compound having Formula IV, effect on IL-8 after LPS stimulation: comparable effects
IL-8; [2]
  Concentration at which a significant inhibitory effect was observed for IL-8: 30 µg/mL
MIP-1α; [1]
  Inhibition of LPS-stimulated MIP-1α production: X
MIP-1α; FIG. 1, THP-1 monocytes
  Comparison of moxifloxacin and compound having Formula IV, effect on MIP-1α after LPS stimulation: comparable effects
MIP-1α; [2]
  Concentration at which a significant inhibitory effect was observed for MIP-1α: 30 µg/mL
IL-1ra; 1 μg/mL compound + 10 μg/mL LPS, THP-1 monocytes
  Inhibition of LPS-stimulated IL-1ra production: X
IL-1ra; 10 μg/mL compound + 10 μg/mL LPS, THP-1 monocytes
  Inhibition of LPS-stimulated IL-1ra production: X
IL-1ra; 30 μg/mL compound + 10 μg/mL LPS, THP-1 monocytes
  Inhibition of LPS-stimulated IL-1ra production: X
IL-1ra; [4]
  Relative potency of compound having Formula IV and moxifloxacin on IL-1ra: better potency than moxifloxacin
IL-1ra; LPS-induced, THP-1 monocytes
  Concentration with significant inhibitory effect on IL-1ra: 1000 ng/mL
IL-1β; [1]
  Inhibition of LPS-stimulated IL-1β production: X
IL-1β; FIG. 1, THP-1 monocytes
  Comparison of moxifloxacin and compound having Formula IV, effect on IL-1β after LPS stimulation: comparable effects
IL-1β; [2]
  Concentration at which a significant inhibitory effect was observed for IL-1β: 30 µg/mL
IL-1α; 0.1 μg/mL compound + 10 μg/mL LPS, 18 hours, THP-1 monocytes
  Inhibition of LPS-stimulated IL-1α production: X
IL-1α; [5]
  Inhibition of LPS-stimulated IL-1α production: X
IL-1α; [6]
  Inhibition of LPS-stimulated IL-1α production: X
IL-1α; [1]
  Inhibition of LPS-stimulated IL-1α production: X
IL-1α; [4]
  Relative potency of compound having Formula IV and moxifloxacin on IL-1α: better potency than moxifloxacin
IL-1α; LPS-induced, THP-1 monocytes
  Lowest concentration with significant inhibitory effect on IL-1α: 100 ng/mL
IL-1α; [2]
  Concentration at which a significant inhibitory effect was observed for IL-1α: 0.1 µg/mL
GM-CSF; [1]
  Inhibition of LPS-stimulated GM-CSF production: X
GM-CSF; FIG. 1, THP-1 monocytes
  Comparison of moxifloxacin and compound having Formula IV, effect on GM-CSF after LPS stimulation: comparable effects
GM-CSF; [2]
  Concentration at which a significant inhibitory effect was observed for GM-CSF: 30 µg/mL
RANTES
  Effect on LPS-stimulated production of RANTES: Neither moxifloxacin nor compound having Formula IV altered
G-CSF; [5]
  Inhibition of LPS-stimulated G-CSF production: X
G-CSF; [6]
  Inhibition of LPS-stimulated G-CSF production: X
G-CSF; [1]
  Inhibition of LPS-stimulated G-CSF production: X
G-CSF; [4]
  Relative potency of compound having Formula IV and moxifloxacin on G-CSF: better potency than moxifloxacin
G-CSF; LPS-induced, THP-1 monocytes
  Concentration with significant inhibitory effect on G-CSF: 1000 ng/mL
G-CSF; [2]
  Concentration at which a significant inhibitory effect was observed for G-CSF: 1 µg/mL
Fractalkine
  Effect on LPS-stimulated production of fractalkine: Neither moxifloxacin nor compound having Formula IV altered
